From patent US20090041818A1, “ANTIVIRAL AGENT, AND FABRIC AND ANTIVIRAL MEMBER […] AGENT” (priority 2003, published 2009)

Test system: influenza type A virus, Cygnus columbianus/Shimane/499/83 (H5N3) (avian strain)

[O]=[Ca] [Sample 1, calcium oxide]
antiviral effect (in words, comparison of samples): high antiviral effect
